# Measurements from US6552039B2, “Fungicidal combinations comprising a 4-phenoxyquinoline” (Syngenta Crop Protection, Inc., priority 1998, dated 2003).
# Where two headings read alike, the source gives them in different places.
# Assays:
# Assay type in all cases: in vivo
# Septoria spp. = assay: Activity against Septoria, field trial, winter wheat cv. Consort (Example B-8); settings: for % infested leaf after 84 days: winter wheat field trial, untreated control 97
# Experimental: A field trial was carried out in Great Britain with winter wheat, cv. Consort. The experiment was arranged with 4 replicates in randomized plots each of 36 m^2. Application was carried out at 5-10% infected leaf area on the lower leaves. Cyproconazole was used as a EC240, quinoxyfen as a SC500 and the mixture cyproconazole/quinoxyfen as a SC155 formulation. Cyproconazole was applied at 80 g a.i./ha, quinoxyfen at 75 g a.i./ha and the mixture contained the same amounts of the individual active ingredients. The spray volume of all treatments was 200 l/ha. Disease assessment of Septoria spp. was estimated 84 days after application when the untrated control plants had approximated 97% infected leaf area. Results are expressed as % activity calculated on the basis of % infected leaf area.
# Erysiphe graminis = assay: Field test on Erysiphe graminis, winter wheat cv. Kanzler (Example B-6); settings: for % infested leaf area after 29 days: winter wheat field trial, untreated control 15
# Experimental: A field trial was carried out in Germany with winter wheat, cv.Kanzler. The experiment was arranged with 4 replicates in randomized plots of 12.5 m^2. Cyproconazole was used as a EC240, quinoxyfen as a SC500 and the mixture cyproconazole/quinoxyfen as a SC155 formulation. Cyproconazole was applied at 80 g a.i./ha, quinoxyfen at 75 g a.i./ha and the mixture contained the same amounts of the individual active ingredients. The spray volume of all treatments was 400 l/ha. Disease assessment of Erysiphe graminis was estimated 29 days after application when untrated control plants had 15% infected leaf area. Results are expressed as % activity calculated on the basis of % infected leaf area.
# [1] = system: Erysiphe graminis f. sp. tritici; assay: Efficacy against Erysiphe graminis f.sp. tritici on wheat (Example B-5), foliar spray, synergy by COLBY
# Description: A synergistic effect exists whenever the action of an active ingredient combination is greater than the sum of the actions of the individual components.
# The action to be expected E for a given active ingredient combination obeys the so-called COLBY formula and can be calculated as follows (COLBY, S. R. “Calculating synergistic and antagonistic responses of herbicide combination”. Weeds, Vol. 15, pages 20-22; 1967):
# According to Colby, the expected (additive) action of active ingredients I+II using p+q ppm of active ingredient is [formula]
# If the action actually observed (O) is greater than the expected action (E), then the action of the combination is superadditive, i.e. there is a synergistic effect.
# Five to ten wheat seeds c.v. “Arina” are sown in plastic pots of 7 cm diameter and grown for 7 to 12 days at 20° C., 50-70% rH. When the primary leaves have fully expanded, the plants are spray treated with aqueous spray liquors containing the single compounds, or mixtures thereof (hereinafter a.i.). All compounds are used as experimental or commercially available formulations, combinations are applied as tank mixtures. The application comprises foliar spraying to near runoff (three pots per treatment). 24 hours after the application or 24 hours before application, the plants are inoculated in a settling tower with fresh spores of Erysiphe graminis f. sp. tritici. The plants are then incubated in a growth chamber at 20° C., 60% rH. Seven days after the inoculation, the percentage of infection on primary leaves is evaluated. The efficacy of the a.i. is determined by comparing the degree of fungal attack on treated plants with that on untreated, similarly inoculated and incubated check plants. Each a.i. is tested at 4 to 5 concentrations. The synergie factor is calculated according to the COLBY method.
# Uncinula necator = assay: Activity against Uncinula necator on grape plants (Example B-7)
# Experimental: The deposit is then allowed to dry. One day later, the treated plants are inoculated by dusting freshly harvested conidia over the test plants; then the plants were incubated in a growt chamber for 10-14 days at +22° C. and 70% r.h. The efficacy of the test compounds is determined by comparing the degree of fungal attack with that on untreated, similarly inoculated check plants. I
# [2] = curative application, single a.i. 0.1 mg a.i./l
# [3] = protective application, single a.i. 0.1 mg a.i./l
# [4] = protective application, single a.i. 0.25 mg a.i./l
# [5] = Blumeria graminis, foliar, curative application, single a.i. 0.05 mg a.i./l, read-out: % activity observed
smiles,measurement,setting,value
CC(C1CC1)C(O)(Cn1cncn1)c1ccc(Cl)cc1 (stereo not shown) [Cyproconazole],% activity observed,"Septoria spp.; EC240, 80 g a.i./ha, 84 days after application",42%
same,% infested leaf after 84 days,"Septoria spp.; EC240, 80 g a.i./ha",56%
same,% activity observed,"Erysiphe graminis; SL100, 80 g a.i./ha, 29 days after application",60%
same,% infested leaf area after 29 days,"Erysiphe graminis; SL100, 80 g a.i./ha",6%
same,% activity observed,"[1]; curative application, single a.i. 0.05 mg a.i./l",7%
same,% activity observed,[1]; [2],8%
same,% activity observed,"[1]; curative application, single a.i. 0.25 mg a.i./l",16%
same,% activity observed,"[1]; curative application, single a.i. 0.5 mg a.i./l",24%
same,% activity observed,"[1]; protective application, single a.i. 0.05 mg a.i./l",1%
same,% activity observed,[1]; [3],2%
same,% activity observed,[1]; [4],4%
same,% activity observed,"[1]; protective application, single a.i. 0.5 mg a.i./l",12%
Cc1cc(C2CC2)nc(Nc2ccccc2)n1 [Cyprodinil],% activity observed,"[1]; curative application, single a.i. 25 mg a.i./l",25%
CC(Cc1ccc(C(C)(C)C)cc1)CN1CCCCC1 (stereo not shown) [Fenpropidin],inhibition at 0.05 µg/mL,[1]; [5],0%
same,inhibition at 0.5 µg/mL,"[1]; Blumeria graminis, foliar, protective application, single a.i. 0.5 mg a.i./l, read-out: % activity observed",2%
CCCC(Cn1cncn1)c1ccc(Cl)cc1Cl (stereo not shown) [Penconazole],% activity observed,Uncinula necator; single a.i. 0.1 mg a.i./l,7%
same,% activity observed,Uncinula necator; single a.i. 1 mg a.i./l,42%
CCCC1COC(Cn2cncn2)(c2ccc(Cl)cc2Cl)O1 (stereo not shown) [Propiconazole],% activity observed,[1]; [2],34%
same,% activity observed,[1]; [3],1%
same,% activity observed,[1]; [4],12%
Fc1ccc(Oc2ccnc3cc(Cl)cc(Cl)c23)cc1 [Quinoxyfen],inhibition at 0.1 µg/mL,"Uncinula necator; Erysiphe necator, single a.i. 0.1 mg a.i./l, read-out: % activity observed",48%
same,inhibition at 1 µg/mL,"Uncinula necator; Erysiphe necator, single a.i. 1 mg a.i./l, read-out: % activity observed",58%
same,inhibition at 75 g/ha,"Septoria spp.; 2016 h, SC500, 75 g a.i./ha, 84 days after application, read-out: % activity observed",12%
same,% infested leaf after 84 days,"Septoria spp.; SC500, 75 g a.i./ha",85%
same,inhibition at 75 g/ha,"Erysiphe graminis; Blumeria graminis, 696 h, SC500, 75 g a.i./ha, 29 days after application, read-out: % activity observed",33%
same,% infested leaf area after 29 days,"Erysiphe graminis; SC500, 75 g a.i./ha",10%
same,inhibition at 0.05 µg/mL,[1]; [5],1%
same,inhibition at 0.1 µg/mL,"[1]; Blumeria graminis, foliar, curative application, single a.i. 0.1 mg a.i./l, read-out: % activity observed",3%
same,inhibition at 0.25 µg/mL,"[1]; Blumeria graminis, foliar, curative application, single a.i. 0.25 mg a.i./l, read-out: % activity observed",6%
same,inhibition at 0.5 µg/mL,"[1]; Blumeria graminis, foliar, curative application, single a.i. 0.5 mg a.i./l, read-out: % activity observed",4%
same,inhibition at 1 µg/mL,"[1]; Blumeria graminis, foliar, curative application, single a.i. 1 mg a.i./l, read-out: % activity observed",7%
same,inhibition at 0.05 µg/mL,"[1]; Blumeria graminis, foliar, protective application, single a.i. 0.05 mg a.i./l, read-out: % activity observed",0%
same,inhibition at 0.1 µg/mL,"[1]; Blumeria graminis, foliar, protective application, single a.i. 0.1 mg a.i./l, read-out: % activity observed",1%
same,inhibition at 0.25 µg/mL,"[1]; Blumeria graminis, foliar, protective application, single a.i. 0.25 mg a.i./l, read-out: % activity observed",3%
